Our source for the IC50 and solubility values is US20210246157A1, “CAMPTOTHECIN DERIVATIVES AND PREPARATION METHODS AND APPLICATIONS THEREOF” (priority 2018, published 2021).

Converted amounts (≈) assume the structure as drawn. Read-outs that look alike come from different tables or passages of the source.

The subject of data set [1] is PANC-1. The data set can be described thus: Cytotoxicity test (MTT, 72 h). As to conditions: Homo sapiens, PANC-1, 72 h, read-out: 50% Inhibiting Concentration value (IC50).
Method: (§1) Cells at logarithmic growth period are inoculated in a 96-well plate overnight, then drugs with a certain gradient concentrations are added, and incubation is carried out in a cell culture chamber (5% CO2, 37° C.) for 72 h.
The subject of data set [2] is PC3. The data set is described as follows: Cytotoxicity test (MTT, 72 h). As to conditions: Homo sapiens, PC-3, 72 h, read-out: 50% Inhibiting Concentration value (IC50).
Method: (§2) In order to investigate the antitumor activities of the compounds, a variety of tumor cell lines for test are selected. Cells at logarithmic growth period are inoculated in a 96-well plate overnight, then drugs with a certain gradient concentrations are added, and incubation is carried out in a cell culture chamber (5% CO2, 37° C.) for 72 h.
Data set [3] relates to BGC-823. The data set can be described thus: Cytotoxicity test (MTT, 72 h). Conditions: Homo sapiens, BGC-823, 72 h, read-out: 50% Inhibiting Concentration value (IC50).
Method: as §2
Data set [4] has as its system HT-29. The data set is described as follows: Cytotoxicity test (MTT, 72 h). As to conditions: Homo sapiens, HT-29, 72 h, read-out: 50% Inhibiting Concentration value (IC50).
Method: as §1
A short description of data set [5]: Solubility test, equilibrium method, UV-visible spectrophotometry. Type of data set: physicochemical. As to conditions: thermodynamic from solid. The protocol: The solubility test is carried out by equilibrium method. […] An appropriate amount of the compound is weighed and dissolved in 1 mL of methanol solution to prepare a control solution with a certain concentration (C0). The concentration of test solution is calculated according to the following formula: Cx=(Ax/A0)C0, wherein Cx is concentration of test solution, Ax is absorbance of test solution, C0 is concentration of control solution, and A0 is absorbance of control solution.

Data set [6] concerns HCT-116. The data set is described as follows: Cytotoxicity test (MTT, 72 h). As to conditions: Homo sapiens, HCT-116, 72 h, read-out: 50% Inhibiting Concentration value (IC50).
Method: as §2
Data set [7] concerns HepG2. The data set is described as follows: Cytotoxicity test (MTT, 72 h). As to conditions: Homo sapiens, HepG2, 72 h, read-out: 50% Inhibiting Concentration value (IC50).
Method: as §2
Data set [8] relates to SW-480. The data set is described as follows: Cytotoxicity test (MTT, 72 h). Conditions: Homo sapiens, SW480, 72 h, read-out: 50% Inhibiting Concentration value (IC50).
Method: as §1
Data set [9] relates to 143B. The data set is described as follows: Cytotoxicity test (MTT, 72 h). Conditions: Homo sapiens, read-out: 50% Inhibiting Concentration value (IC50).
Method: as §2
The test system of data set [10] is H1975. The data set can be described thus: Cytotoxicity test (MTT, 72 h). As to conditions: Homo sapiens, NCI-H1975, 72 h, read-out: 50% Inhibiting Concentration value (IC50).
Method: as §2
Data set [11] has as its system A549. The data set is described as follows: Cytotoxicity test (MTT, 72 h). As to conditions: Homo sapiens, A549, 72 h, read-out: 50% Inhibiting Concentration value (IC50).
Method: as §2
For data set [12], the system named is TPC-1. The data set can be described thus: Cytotoxicity test (MTT, 72 h). Conditions: Homo sapiens, TPC1, 72 h, read-out: 50% Inhibiting Concentration value (IC50).
Method: as §1
Data set [13] has as its system K562. The data set is described as follows: Cytotoxicity test (MTT, 72 h). As to conditions: Homo sapiens, K562, 72 h, read-out: 50% Inhibiting Concentration value (IC50).
Method: as §2
The test system of data set [14] is SKOV-3. The data set can be described thus: Cytotoxicity test (MTT, 72 h). As to conditions: Homo sapiens, SK-OV-3, 72 h, read-out: 50% Inhibiting Concentration value (IC50).
Method: as §1
Data set [15] relates to ECA-109. The data set is described as follows: Cytotoxicity test (MTT, 72 h). As to conditions: Homo sapiens, ECa-109, 72 h, read-out: 50% Inhibiting Concentration value (IC50).
Method: as §2
Data set [16] deals with MDA-MB-231. The data set is described as follows: Cytotoxicity test (MTT, 72 h). As to conditions: Homo sapiens, MDA-MB-231, 72 h, read-out: 50% Inhibiting Concentration value (IC50).
Method: as §2
For data set [17], the system named is Hela. The data set can be described thus: Cytotoxicity test (MTT, 72 h). As to conditions: Homo sapiens, read-out: 50% Inhibiting Concentration value (IC50).
Method: as §2
Where [18] appears, read: aqueous buffer, PBS pH 7.4, read-out: Solubility in PBS (pH = 7.4).
The mark [19] stands for this setting: aqueous with cosolvent or surfactant or cyclodextrin, 0.1% aqueous solution of Tween-80, read-out: Solubility in 0.1% Tween-80.
[20] abbreviates: saline or isotonic, normal saline, read-out: Solubility in Normal Saline (NS).
Setting [21] is: water, read-out: Solubility in Water.

As to `CCc1c2c(nc3ccc(OC(=O)NCCOCc4cn([C@H]5O[C@@H](CO)[C@H](O)[C@@H](O)[C@@H]5O)nn4)cc13)-c1cc3c(c(=O)n1C2)COC(=O)[C@]3(O)CC` [Compound 66], the IC50 in [1] was determined as 6.78 µM; in data set [2] it was 4.71 µM; in data set [3], 0.18 µM; in data set [4], 5.11 µM; in data set [6], 0.843 µM; in data set [7] it was 1.62 µM. In addition, the IC50 in data set [8] stood at 0.216 µM; in [9], 7.05 µM; in [10] it was 8.46 µM; in data set [11] it was 5.65 µM; in data set [12] it was 10.2 µM; in data set [13] it was 0.703 µM. Besides, the IC50 in [14] amounted to 1.95 µM; in [15], 4.26 µM; in data set [16] it was 1.35 µM; in [17], 6.78 µM. In addition, the solubility in [5] (setting [18]) was found to be 2880 µg/mL (≈ 3980 µM); in data set [5] (setting [19]), 1140 µg/mL (≈ 1580 µM); in data set [5] (setting [20]), 1590 µg/mL (≈ 2210 µM); in [5] (setting [21]) it was 979 µg/mL (≈ 1350 µM).

As for `CCc1c2c(nc3ccc(OC(=O)NCCOCCOCc4cn([C@H]5O[C@@H](CO)[C@H](O)[C@@H](O)[C@@H]5O)nn4)cc13)-c1cc3c(c(=O)n1C2)COC(=O)[C@]3(O)CC` [Compound 73], the IC50 in [1] turned out to be 6.99 µM; in data set [2] it was 4.85 µM; in [3], 0.718 µM; in [4], 3.16 µM; in [6] it was 0.879 µM; in data set [7], 2.42 µM. Further, the IC50 in data set [8] was found to be 0.862 µM; in [9] it was 5.95 µM; in data set [10], 7.14 µM; in [11], 5.82 µM; in [12] it was 8.57 µM; in [13] it was 0.733 µM. In addition, the IC50 in [14] worked out at 2.91 µM; in data set [15], 2.63 µM; in [16] it was 2.02 µM; in data set [17], 6.99 µM. Further, the solubility in data set [5] (setting [18]) is 414 µg/mL (≈ 540 µM); in data set [5] (setting [19]), 1260 µg/mL (≈ 1650 µM); in data set [5] (setting [20]), 1440 µg/mL (≈ 1880 µM); in [5] (setting [21]), 3580 µg/mL (≈ 4670 µM).

Regarding `CCc1c2c(nc3ccc(OC(=O)NCCOCCOCc4cn(CCO[C@H]5O[C@@H](CO)[C@H](O)[C@@H](O)[C@@H]5O)nn4)cc13)-c1cc3c(c(=O)n1C2)COC(=O)C3(O)CC` (some centres unmarked) [Compound 74], the IC50 in data set [1] was determined as 11.3 µM; in [2], 7.85 µM; in data set [3] it was 1.72 µM; in [4], 7.96 µM; in data set [6], 2.52 µM; in data set [7], 6.35 µM. Further, the IC50 in data set [8] stood at 2.06 µM; in [9], 5.69 µM; in [10], 6.82 µM; in data set [11], 9.42 µM; in [12], 8.19 µM; in data set [13], 2.1 µM. Further, the IC50 in [14] amounted to 7.62 µM; in data set [15] it was 6.63 µM; in data set [16] it was 5.29 µM; in [17] it was 11.3 µM. In addition, the solubility was 565 µg/mL (≈ 696 µM) in [5] (setting [18]), 2750 µg/mL (≈ 3390 µM) in data set [5] (setting [19]), 3950 µg/mL (≈ 4880 µM) in data set [5] (setting [20]) and 792 µg/mL (≈ 977 µM) in [5] (setting [21]).

For the molecule `CCc1c2c(nc3ccc(OC(=O)NCCCOCc4cn([C@H]5O[C@@H](CO)[C@H](O)[C@@H](O)[C@@H]5O)nn4)cc13)-c1cc3c(c(=O)n1C2)COC(=O)[C@]3(O)CC` [Compound 80], the IC50 in data set [1] turned out to be 7.36 µM; in data set [2], 5.11 µM; in [3], 1.19 µM; in data set [4] it was 6.94 µM; in data set [6], 5.15 µM; in data set [7] it was 9.33 µM. Besides, the IC50 in [8] is 1.43 µM; in [9], 8.9 µM; in data set [10], 10.7 µM; in data set [11], 6.13 µM; in data set [12], 12.8 µM; in data set [13] it was 4.29 µM. In addition, the IC50 stood at 11.2 µM in data set [14], 5.78 µM in data set [15], 7.78 µM in [16] and 7.36 µM in data set [17]. In addition, the solubility is 792 µg/mL (≈ 1080 µM) in data set [5] (setting [18]), 961 µg/mL (≈ 1300 µM) in [5] (setting [19]), 642 µg/mL (≈ 871 µM) in [5] (setting [20]) and 82.5 µg/mL (≈ 112 µM) in data set [5] (setting [21]).

Consider `CCc1c2c(nc3ccc(OC(=O)NCCCOCc4cn(CCO[C@H]5O[C@@H](CO)[C@H](O)[C@@H](O)[C@@H]5O)nn4)cc13)-c1cc3c(c(=O)n1C2)COC(=O)[C@]3(O)CC` [Compound 81], for which the IC50 in [1] was determined as 9.98 µM; in data set [2] it was 6.93 µM; in data set [3] it was 0.709 µM; in [4] it was 9.42 µM; in [6], 7.24 µM; in [7], 6.25 µM. The IC50 in data set [8] came out at 0.851 µM; in [9] it was 8.06 µM; in data set [10] it was 9.68 µM; in data set [11] it was 8.32 µM; in data set [12] it was 11.6 µM; in [13], 6.03 µM. For the same molecule, the IC50 in data set [14] came to 7.5 µM; in data set [15], 7.85 µM; in data set [16], 5.21 µM; in [17], 9.98 µM. Moreover, the solubility in [5] (setting [18]) came out at 895 µg/mL (≈ 1150 µM); in data set [5] (setting [19]), 1210 µg/mL (≈ 1550 µM); in data set [5] (setting [20]), 985 µg/mL (≈ 1260 µM); in [5] (setting [21]), 985 µg/mL (≈ 1260 µM).

`CCc1c2c(nc3ccc(OC(=O)NCCCCCOCc4cn([C@H]5O[C@@H](CO)[C@H](O)[C@@H](O)[C@@H]5O)nn4)cc13)-c1cc3c(c(=O)n1C2)COC(=O)[C@]3(O)CC` [Compound 87]: the IC50 in data set [1] came to 7.62 µM; in data set [2], 5.29 µM; in data set [3], 0.96 µM; in data set [4] it was 7.36 µM; in data set [6], 1.52 µM; in data set [7], 7.35 µM. Besides, the IC50 in data set [8] turned out to be 1.15 µM; in [9] it was 4.27 µM; in data set [10], 5.12 µM; in data set [11], 6.35 µM; in [12], 6.15 µM; in [13], 1.27 µM. Also, the IC50 in data set [14] was determined as 8.82 µM; in [15] it was 6.14 µM; in [16], 6.12 µM; in [17] it was 7.62 µM. Moreover, the solubility in data set [5] (setting [18]) was 910 µg/mL (≈ 1190 µM); in data set [5] (setting [19]) it was 1110 µg/mL (≈ 1450 µM); in [5] (setting [20]), 894 µg/mL (≈ 1170 µM); in data set [5] (setting [21]), 1050 µg/mL (≈ 1370 µM).

With `CCc1c2c(nc3ccc(OC(=O)NCCCCCOCc4cn(CCO[C@H]5O[C@@H](CO)[C@H](O)[C@@H](O)[C@@H]5O)nn4)cc13)-c1cc3c(c(=O)n1C2)COC(=O)[C@]3(O)CC` [Compound 88], the IC50 in [1] was found to be 11 µM; in [2], 7.61 µM; in data set [3], 0.721 µM; in data set [4], 9.1 µM; in data set [6], 2.73 µM; in data set [7], 6.22 µM. Further, the IC50 in data set [8] is 0.865 µM; in data set [9] it was 5.82 µM; in data set [10] it was 6.98 µM; in data set [11], 9.13 µM; in [12] it was 8.38 µM; in data set [13] it was 2.27 µM. The IC50 in [14] came to 7.46 µM; in data set [15], 7.58 µM; in data set [16], 5.18 µM; in [17], 11 µM. For the same molecule, the solubility in data set [5] (setting [18]) worked out at 895 µg/mL (≈ 1110 µM); in data set [5] (setting [19]) it was 1350 µg/mL (≈ 1670 µM); in [5] (setting [20]), 870 µg/mL (≈ 1080 µM); in data set [5] (setting [21]), 1130 µg/mL (≈ 1390 µM).

What is called solubility is the dissolved amount per volume that the medium holds.
